Measured values reported in patent publication US9125898B2, “Acetam derivatives for pain relief” (NEUROTUNE AG, priority 2008, dated 2015).
Entries after “also recorded” stand apart in the source; their conditions may differ.

How the values were obtained:
Format in all cases: in vivo
[1] = system: chronic constriction injury induced hyperalgesia in the rat; test: Chronic constriction injury induced hyperalgesia in the rat (paw-pressure test); settings: for Paw pressure, pre-test before all treatments: baseline, drug 100 mg/kg p.o.; for Paw pressure, 5 day 30 min / Paw pressure, 10 day 30 min / Paw pressure, 14 day 30 min / Paw pressure, 14 day 4 h / Paw pressure, 14 day 8 h / Paw pressure, 15 day 24 h / Paw pressure, 18 day 3 days: 100 mg/kg p.o. once a day for 14 days
Procedure: In the repeated administration protocol, NT-13317 was orally administered at 100 mg/kg in 1% CMC once a day for 14 days starting from the day of sciatic nerve ligation.
Peripheral rat mononeuropathy (Chronic constriction injury): Neuropathy was induced according to the procedure described by Bennett and Xie (Bennett G J, Xie Y K. A peripheral mononeuropathy in rat that produces disorders of pain sensation like those seen in man. Pain 1988; 33: 87-107).
Briefly, rats were anaesthetized with chloral hydrate 400 mg/kg intraperitoneally (i.p.); under aseptic conditions, the right common sciatic nerve was exposed at the level of the middle thigh by blunt dissection. Proximal to the trifurcation, the nerve was carefully freed from the surrounding connective tissue and four chromic cat gut ligatures (4-0, Ethicon, Norderstedt, Germany) were tied loosely around it with about 1 mm spacing. After haemostasis was confirmed, the incision was closed in layers. Then animals were allowed to recover from anaesthesia and surgery and were kept one per cage with free access to water and standard laboratory chow.
Statistical analysis: All experimental results are given as the mean±S.E.M. An analysis of variance, ANOVA, followed by Fisher's protected least significant difference procedure for post hoc comparison, were used to verify significance between two means of behavioural results. Data were analyzed with the StatView software for the Macintosh (1992). P values≦0.05 were considered significant.
Data of mechanical threshold (PWT) were converted to a percentage of the maximal possible effect (% MPE), according to Veneroni, O. et al. as follows: %MPE=(left dose PWT−left pre-dose control PWT)/(left naïve PWT−left pre-dose PWT)*100
The obtained % MPE were employed for ED50 calculation (obtained by Grafit v. 5.0), defined as the dose producing 50% reversal of mechanical allodynia.

[2] = system: oxaliplatin induced hyperalgesia in the rat; test: Oxaliplatin induced hyperalgesia in the rat paw-pressure test; settings: for Paw pressure, pre-test before all treatments: baseline, drug 100 mg/kg p.o.; for Paw pressure, 1a week - 30 min / Paw pressure, 2a week - 30 min / Paw pressure, 3a week - 30 min / Paw pressure, 3a week - 4 h / Paw pressure, 3a week - 8 h / Paw pressure, 3a week - 24 h: drug 100 mg/kg p.o. once daily
Procedure: Drugs: The following substance was used: NT-13317 (batch No. RR0011-184A1 supplied by Brane Discovery Srl, Gerenzano Italy). NT-13317 was dissolved in DMSO 20%, 10% glucose and administered at the dose of 10, 30 and 100 mg/kg p.o.
Gabapentin (Sigma) was dissolved in 1% CMC (carboxymethylcellulose-Sigma) and orally administered at 100 mg/kg, and dissolved in saline and i.v. administered at 3 mg/kg.
Oxaliplatin model: A peripheral neuropathy was induced in adult rats, by administration of oxaliplatin (Tocris), at 2.4 mg/kg i.p. in saline once a day on days 1, 2, 3, 4, 5, 8, 9, 10, 11, 12, 15, 16, 17, 18, 19 (cumulative dose 36 mg/kg) according to [1].
In the first experiment NT-13317 and gabapentin were given chronically at the dose 100 mg/kg po starting 3 days before oxaliplatin and every day for 5 days/week for 3 weeks.
A dose-response experiment was then performed with NT-13317 (10, 30 and 100 mg/kg po) using the same treatment schedule.
Paw pressure test: Paw mechanical sensitivity was determined using a Randall & Selitto apparatus exerting a force that increases at constant rate (32 g/s). The stimulus at which rats withdrawn the paw was evaluated before and at different times after treatment. Results represent the mean of mechanical thresholds expressed as grams. To avoid any possible damage to the animal paw the maximum applied force was fixed at 240 g.
Statistical analysis: All experimental results are given as the mean±S.E.M. An analysis of variance, ANOVA, followed by Fisher's protected least significant difference procedure for post hoc comparison, were used to verify significance between two means of behavioral results. Data were analyzed with the StatView software for the Macintosh (1992). P values≦0.05 were considered significant.

[3] = system: MIA induced hyperalgesia in the rat; test: MIA induced hyperalgesia in the rat (paw-pressure test); settings: for Mechanical threshold, before treatment, first day basal: baseline
Text: Peripheral neuropathic induced in rats by administration into the left knee joint of MIA mimics chronic pain condition of osteoarthritis found in a large part of population over 60 years. The MIA test represents an useful and predictive model to study the anti-hyperalgesic potential of a drug in human osteoarthritic condition.
Drugs: The following substances were used: NT-11624 (batch n 66-MM3/16 supplied by Brane Discovery Sri, Gerenzano Italy) and tramadol (Tocris, UK). […] Control rats received saline only.
Sodium monoiodoacetate injection: A single intra-articular injection of sodium iodoacetate (MIA) was introduced into the right knee joint. […] Briefly, rats were deeply anaesthetized by ethylic ether. Following abolition of the hindpaw pinch withdrawal reflex, a 27-gauge needle was introduced into the joint cavity between the tibial plateau and femoral condyles. Once in place, 2 mg of MIA were solubilized in a volume of 25 ul and injected into the joint and the animal was allowed to recover for 14 days prior to pain assessment. It has consistently been shown that this dose of MIA causes osteoarthritic-like focal lesions in articular cartilage and subchondral bone thickening 14 days after administration Guingamp C. et al. Arthritis Rheum 40, 1670-9 (1997). Therefore this model can easily and quickly reproduce osteoarthritic-like lesions and functional impairment in rats, similar to that observed in human disease.
The administration of MIA induces in rats a hyperalgesic response to mechanical stimuli that reaches its statistical significance 5 days after administration and persists for 4 weeks (Fernihough et al. Pain 112:83-93 (2004)).
Control rats were treated with an equal volume of saline. […]
Starting from day 17 after MIA injection, paw pressure tests were performed.
Mechanical hyperalgesia: Paw mechanical sensitivity was determined using a Randall & Selitto apparatus exerting a force that increases at constant rate (32 g/s). The stimulus at which rats withdrawn the paw was evaluated before treatment (First day basal) and at the end of the treatment as following: before last treatment (pre-dose), and after last treatment (15, 30, 45, 60 min, 24, 48 and 72 h).
Results represent the mean of mechanical thresholds expressed as grams. To avoid any possible damage to the animal paw the maximum applied force was fixed at 240 g.

[4] = MIA rats, 14 days b.i.d. p.o. (NT-11624 150 mg/kg, tramadol 40 mg/kg)
[5] = MIA rats, single p.o. administration on saline b.i.d. (NT-11624 150 mg/kg, tramadol 40 mg/kg)

Cc1ccc(N2C(=O)CN3C(=O)CCC32)cc1 (stereo not shown) [NT-13317, 1-p-tolyl-tetrahydropyrrolo[1,2a]imidazole-2,5-dione]
Paw pressure, pre-test before all treatments ([1]; CCI group): 60.7 ± 2.7 g | Paw pressure, 5 day 30 min ([1]; CCI): 41.6 ± 4.2 g | Paw pressure, 10 day 30 min ([1]; CCI): 51.9 ± 5.2 g | Paw pressure, 14 day 30 min ([1]; CCI): 53.4 ± 5.5 g | Paw pressure, 14 day 4 h ([1]; CCI): 52.9 ± 5.2 g | Paw pressure, 14 day 8 h ([1]; CCI): 51.6 ± 4.4 g | Paw pressure, 15 day 24 h ([1]; CCI): 47.8 ± 4.7 g | Paw pressure, 18 day 3 days ([1]; CCI): 43.6 ± 5.1 g | Paw pressure, pre-test before all treatments ([1]; SHAM group): 62.3 ± 3.5 g | Paw pressure, 5 day 30 min ([1]; SHAM): 57.7 ± 4.3 g | Paw pressure, 10 day 30 min ([1]; SHAM): 55.8 ± 5.0 g | Paw pressure, 14 day 30 min ([1]; SHAM): 59.2 ± 3.9 g | Paw pressure, 14 day 4 h ([1]; SHAM): 57.2 ± 4.4 g | Paw pressure, 14 day 8 h ([1]; SHAM): 63.2 ± 6.0 g | Paw pressure, 15 day 24 h ([1]; SHAM): 61.6 ± 5.2 g | Paw pressure, 18 day 3 days ([1]; SHAM): 60.7 ± 6.2 g | Activity relative to gabapentin ([1]; i.c.v. single administration): ten times more active than gabapentin | Effect on paw pressure test after the last administration (in words) ([1]; p.o. 100 mg/kg once a day for 14 days from the day of sciatic nerve ligation): significant effect on paw pressure test up to 24 hr | Dose-response experiment, 100 mg/kg ([2]; 100 mg/kg p.o.): confirmed the results of the first experiment | Effect 4 h after administration at the end of the third week ([2]; 100 mg/kg p.o.): retained maximal efficacy; also recorded: still a beneficial effect | Effect 8 hr after administration at the end of the third week ([2]; 100 mg/kg p.o.): not any more significant | Reduction of mechanical hyperalgesia over three weeks of treatment (in words) ([2]; 100 mg/kg p.o. once daily, 5 days/week for 3 weeks): statistically significant reduction of mechanical hyperalgesia; also recorded: maximal at the end of week 3 | Dose-response experiment, lower doses ([2]; 10 and 30 mg/kg p.o.): inactive | Paw pressure, pre-test before all treatments ([2]; oxaliplatin i.p. group): 58.9 ± 3.7 g | Paw pressure, 1a week - 30 min ([2]; oxaliplatin i.p.): 68.7 ± 5.2 g | Paw pressure, 2a week - 30 min ([2]; oxaliplatin i.p.): 74.3 ± 6.1 g | Paw pressure, 3a week - 30 min ([2]; oxaliplatin i.p.): 79.2 ± 6.3 g | Paw pressure, 3a week - 4 h ([2]; oxaliplatin i.p.): 74.3 ± 4.3 g | Paw pressure, 3a week - 8 h ([2]; oxaliplatin i.p.): 53.5 ± 6.3 g | Paw pressure, 3a week - 24 h ([2]; oxaliplatin i.p.): 40.6 ± 5.0 g | Paw pressure, pre-test before all treatments ([2]; vehicle i.p. (no oxaliplatin) group): 60.6 ± 3.9 g | Paw pressure, 1a week - 30 min ([2]; vehicle i.p. (no oxaliplatin)): 63.0 ± 4.3 g | Paw pressure, 2a week - 30 min ([2]; vehicle i.p. (no oxaliplatin)): 66.1 ± 4.5 g | Paw pressure, 3a week - 30 min ([2]; vehicle i.p. (no oxaliplatin)): 74.8 ± 5.4 g | Paw pressure, 3a week - 4 h ([2]; vehicle i.p. (no oxaliplatin)): 73.8 ± 4.4 g | Paw pressure, 3a week - 8 h ([2]; vehicle i.p. (no oxaliplatin)): 68.5 ± 3.7 g | Paw pressure, 3a week - 24 h ([2]; vehicle i.p. (no oxaliplatin)): 69.9 ± 4.6 g

COc1cccc(C2(O)CCCCC2CN(C)C)c1 (stereo not shown) [TRAMADOL, tramadol, reference compound]
Mechanical threshold, after last treatment 15 min [3, 4]: 38.8 ± 2.2 g | Mechanical threshold, after last treatment 30 min [3, 4]: 36.4 ± 2.9 g | Mechanical threshold, after last treatment 45 min [3, 4]: 32.8 ± 3.4 g | Mechanical threshold, before treatment, first day basal ([3]; MIA rats, groups later treated 14 days b.i.d. p.o. (NT-11624 150 mg/kg, tramadol 40 mg/kg)): 59.2 ± 3.1 g | Mechanical threshold, before treatment, first day basal ([3]; MIA rats, single administration groups (saline 14 days b.i.d. first)): 62.8 ± 3.0 g | Mechanical threshold, before last treatment, pre-dose ([3]; MIA rats, single administration on saline b.i.d., before the single p.o. dose (NT-11624 150 mg/kg, tramadol 40 mg/kg)): 25.5 ± 3.8 g | Mechanical threshold, after last treatment 15 min [3, 5]: 39.2 ± 4.1 g | Mechanical threshold, after last treatment 30 min [3, 5]: 43.4 ± 3.6 g | Mechanical threshold, after last treatment 45 min [3, 5]: 36.2 ± 3.4 g | Mechanical threshold, after last treatment 60 min ([3]; MIA rats, single p.o. administration on saline b.i.d., tramadol 40 mg/kg): 27.2 ± 3.4 g | Effect of a single oral dose on mechanical threshold (in words) ([3]; single oral dose after saline b.i.d. for 14 days (NT-11624 150 mg/kg, tramadol 40 mg/kg)): significant anti-hyperalgesic effect from 15 to 60 min | Antihyperalgesic activity after the last treatment (in words) ([3]; treatment for 14 days b.i.d. p.o. (NT-11624 150 mg/kg, tramadol 40 mg/kg)): only a weak antihyperalgesic activity 15 and 30 min after the last treatment
